From PubChem BioAssay (NCI)
Where “and” joins values, the source holds several entries; their conditions need not be identical. Identical values can stand only once.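 A five-concentration, 48-hour dose response in 96-well plates underlies each endpoint, interpolated linearly between surrounding concentrations. GI50 marks 50% less growth. The concentration for full growth arrest is given as TGI.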

Experiments:
Assay in all cases: NCI tumour cell line growth inhibition, 48 h
SN12C renal = system: SN12C renal
SF-268 CNS = system: SF-268 CNS
DMS 273 small cell lung = system: DMS 273 small cell lung
SNB-75 CNS = system: SNB-75 CNS
MDA-MB-231 breast = system: MDA-MB-231 breast
SNB-78 CNS = system: SNB-78 CNS
A498 renal = system: A498 renal
A549 NSCLC = system: A549 NSCLC
SF-295 CNS = system: SF-295 CNS
IGROV1 ovarian = system: IGROV1 ovarian

Row | SMILES | GI50 (SN12C renal) [µM] | TGI (SN12C renal) | GI50 (SF-268 CNS) [µM] | TGI (SF-268 CNS) [µM] | GI50 (DMS 273 small cell lung) [µM] | TGI (DMS 273 small cell lung) [µM] | GI50 (SNB-75 CNS) [µM] | TGI (SNB-75 CNS) | GI50 (MDA-MB-231 breast) [µM] | TGI (MDA-MB-231 breast) [µM] | GI50 (SNB-78 CNS) [µM] | TGI (SNB-78 CNS) [µM] | GI50 (A498 renal) [µM] | TGI (A498 renal) [µM] | GI50 (A549 NSCLC) [µM] | TGI (A549 NSCLC) | GI50 (SF-295 CNS) [µM] | TGI (SF-295 CNS) [µM] | GI50 (IGROV1 ovarian) [µM] | TGI (IGROV1 ovarian)
1 | [Au+].[Au+].[Au+].[c-]1nccn1Cc1ccccc1.[c-]1nccn1Cc1ccccc1.[c-]1nccn1Cc1ccccc1 | 8.42 | 55.3 µM | 3.35 | 15.3 | 1.66 | 3.23 | 6.08 | 18.9 µM | 22 | 70.5 | 2.84 | 8.63 | 16.1 | 33.6 | 24.7 | 65.4 µM | 10.5 | 40.2 | 3.48 | 7.92 µM
2 | COc1ccc2[nH]c3c4c(ccc3c2c1)C(=O)C=CC4=O | – | 24.4 µM | – | 36.1 | – | 32 | – | 41.3 µM | – | 35.4 | – | 37.1 | – | 48.4 | – | 62.8 µM | – | 53.9 | – | 26.4 µM
3 | CC12CCCCC1(C)C2Sc1ccccc1 (centres undefined) | – | > 100 µM | – | > 100 | – | > 100 | – | > 100 µM | – | – | – | > 80.1 | – | 98.2 | – | > 100 µM | – | > 100 | – | > 100 µM
4 | COC(=O)CCC(=O)CC1CC(=O)C2CCCN12 (centres undefined) | – | > 100 µM | – | > 100 | – | > 100 | – | > 100 µM | – | – | – | > 100 | – | > 100 | – | > 100 µM | – | > 100 | – | > 100 µM
5 | COc1ccc(C2c3cc(OC)c(OC)cc3C(Cc3ccc([N+](=O)[O-])cc3)C2c2ccc([N+](=O)[O-])cc2)cc1OC (centres undefined) | – | > 100 µM | – | > 100 | – | > 100 | – | > 100 µM | – | – | – | > 100 | – | > 100 | – | > 100 µM | – | > 100 | – | > 100 µM
6 | C[C@@]12CCCc3coc(c31)C(=O)c1cc3c(cc12)C(=O)C=CC3=O | > 1 | > 1 µM and 38.6 µM | – | > 1 | – | > 1 | > 1 | > 1 µM and 38.2 µM | – | – | – | > 1 | – | > 100 | > 1 | > 1 µM and 51.4 µM | – | > 1 | > 1 | > 1 µM and 37.1 µM
7 | Cc1cc(C)c(C2[C@H]3C(=O)N(c4ccc(Cc5ccc(N6C(=O)[C@@H]7ON(c8ccccc8)C(c8c(C)cc(C)cc8C)[C@@H]7C6=O)cc5)cc4)C(=O)[C@H]3ON2c2ccccc2)c(C)c1 (some centres undefined) | – | > 100 µM | – | > 100 | – | > 100 | – | > 100 µM | – | – | – | > 100 | – | > 100 | – | > 100 µM | – | > 100 | – | > 100 µM
